In ChEMBL document CHEMBL5303711, “ECBD screening data for assay EOS300108” (2023):
Where a name gives a salt, the structure may show the parent alone. Active and inactive are the calls of the source. The rule behind the calls is not given here.

Experiment: Cytotoxicity activity against human HepG2 cells assessed by CellTiter-Glo luminescent cell viability assay.
Assay type: toxicity, cell-based
Set-up: assay stage confirmatory assay, source tissue liver
Details: HepG2 cells, read-out: IC50 relative

| SMILES | CC50 |
| --- | --- |
| O=C(Nc1c[nH]nc1-c1nc2cc(CN3CCOCC3)ccc2[nH]1)NC1CC1 [AT-9283] | 1.2 µM (active) |
| N#Cc1ccc2[nH]c(O)c(-c3ccc(CN4CCOCC4)cn3)c2c1 [AZD-1080] | 7.3 µM (active) |
| Cc1cc(Nc2nc(N[C@@H](C)c3ncc(F)cn3)ncc2Cl)n[nH]1 [AZD-1480] | 7.9 µM (active) |
| Cc1ncc(-c2ccnc(Nc3ccc(S(C)(=O)=O)cc3)n2)n1C(C)C [AZD-5438] | 0.6 µM (active) |
| NC(=O)Nc1cc(-c2cccc(F)c2)sc1C(=O)N[C@H]1CCCNC1 [AZD-7762] | 0.9 µM (active) |
| COc1ccc(-c2ccc3c(N4CCOC[C@@H]4C)nc(N4CCOC[C@@H]4C)nc3n2)cc1CO [AZD-8055] | 0.1 µM (active) |
| CN1CCCC(n2nc(Cc3ccc(Cl)cc3)c3ccccc3c2=O)CC1 (configuration not stated) [AZELASTINE HYDROCHLORIDE] | 10 µM (active) |
| CCCCc1nc(-c2ccc(OCCCN(CC)CC)cc2)cn1-c1ccc(Oc2ccc(Cl)cc2)cc1 [AZELIRAGON] | 1.2 µM (active) |
| Cc1ccc(NC(=O)c2ccc(CN3CC[C@H](N(C)C)C3)c(C(F)(F)F)c2)cc1Nc1nccc(-c2cncnc2)n1 [BAFETINIB] | 0.9 µM (active) |
| CC1(C)CC[C@]2(C(=O)O)CC[C@]3(C)[C@H](C(=O)C=C4[C@@]5(C)C=C(C#N)C(=O)C(C)(C)[C@@H]5CC[C@]43C)[C@@H]2C1 [BARDOXOLONE] | 3.7 µM (active) |
| Nc1nc(Nc2ccc3c(c2)CC[C@@H](N2CCCC2)CC3)nn1-c1cc2c(nn1)-c1ccccc1CCC2 [BEMCENTINIB] | 1.2 µM (active) |
| COc1ccc2cc3[n+](cc2c1OC)CCc1cc2c(cc1-3)OCO2 [BERBERINE CHLORIDE] | 14.4 µM (inactive) |
| CNCc1ccc(-c2cc(-c3nc(-c4ccc(S(=O)(=O)C(C)C)cc4)cnc3N)on2)cc1 [BERZOSERTIB] | 2.7 µM (active) |
| CC[C@@H]1C(=O)N(C)c2cnc(Nc3ccc(C(=O)NC4CCN(C)CC4)cc3OC)nc2N1C1CCCC1 [BI-2536] | 1.2 µM (active) |
| COc1c(C)cnc(Cn2cnc3c(Cl)nc(N)nc32)c1C [BIIB021] | 0.4 µM (active) |
| Cn1cnc2c(F)c(Nc3ccc(Br)cc3F)c(C(=O)NOCCO)cc21 [BINIMETINIB] | < 0.1 µM (active) |
| Cc1sc2c(c1C)C(c1ccc(Cl)cc1)=N[C@@H](CC(=O)Nc1ccc(O)cc1)c1nnc(C)n1-2 [BIRABRESIB] | 1.3 µM (active) |
| Oc1c(Cl)cc(Cl)cc1Sc1cc(Cl)cc(Cl)c1O [BITHIONOL] | 14.6 µM (inactive) |
| CC(C)C[C@H](NC(=O)[C@H](Cc1ccccc1)NC(=O)c1cnccn1)B(O)O [BORTEZOMIB] | < 0.1 µM (active) |
| COc1cc(Nc2c(C#N)cnc3cc(OCCCN4CCN(C)CC4)c(OC)cc23)c(Cl)cc1Cl [BOSUTINIB] | 1.8 µM (active) |
| O=c1ccc2ccc(OCCCCN3CCN(c4cccc5sccc45)CC3)cc2[nH]1 [BREXPIPRAZOLE] | 8.4 µM (active) |
| COc1cc(N2CCC(N3CCN(C)CC3)CC2)ccc1Nc1ncc(Cl)c(Nc2ccccc2P(C)(C)=O)n1 [BRIGATINIB] | 5.7 µM (active) |
| C[C@@H]1CN(Cc2ccc(F)cc2)CCN1C(=O)COc1ccc(Cl)cc1NC(N)=O [BX 471 FREE BASE] | 4.8 µM (active) |

| SMILES | CC50 |
| --- | --- |
| O=C(NCCCNc1nc(Nc2cccc(NC(=O)N3CCCC3)c2)ncc1I)c1cccs1 [BX-795] | 5.2 µM (active) |
| COc1cc2nccc(Oc3ccc(NC(=O)C4(C(=O)Nc5ccc(F)cc5)CC4)cc3)c2cc1OC [CABOZANTINIB] | 9.5 µM (active) |
| O=C(/C=C/c1ccc(O)c(O)c1)OCCc1ccccc1 [CAFFEIC ACID PHENETHYL ESTER] | 4.7 µM (active) |
| CC[C@@]1(O)C(=O)OCc2c1cc1n(c2=O)Cc2cc3ccccc3nc2-1 [CAMPTOTHECIN] | 0.2 µM (active) |
| CCOc1nc2cccc(C(=O)OC(C)OC(=O)OC3CCCCC3)c2n1Cc1ccc(-c2ccccc2-c2nnn[nH]2)cc1 (configuration not stated) [CANDESARTAN CILEXETIL] | 10.7 µM (active) |
| C=CC(=O)Nc1cc2c(Nc3ccc(F)c(Cl)c3)ncnc2cc1OCCCN1CCOCC1 [CANERTINIB] | 50 µM (inactive) |
| COc1cc(O)cc(O)c1C(=O)/C=C/c1ccccc1 [CARDAMOMIN] | 18.3 µM (inactive) |
| CN(C)C(=O)N[C@H]1CC[C@H](CCN2CCN(c3cccc(Cl)c3Cl)CC2)CC1 [CARIPRAZINE HYDROCHLORIDE] | 14.1 µM (active) |
| COc1cc2c(Oc3ccc4[nH]c(C)cc4c3F)ncnc2cc1OCCCN1CCCC1 [CEDIRANIB] | 2.5 µM (active) |
| CNC(=O)c1ccccc1Nc1nc(Nc2ccc3c(c2OC)CCC[C@H](N2CCN(CCO)CC2)C3)ncc1Cl [CEP-37440] | 0.8 µM (active) |
| Cc1cc(Nc2ncc(Cl)c(Nc3ccccc3S(=O)(=O)C(C)C)n2)c(OC(C)C)cc1C1CCNCC1 [CERITINIB] | 0.7 µM (active) |
| COc1cc2c(cc1OC(C)C)[C@H](c1ccc(Cl)cc1)N(c1ccc(N(C)C[C@H]3CC[C@H](N4CCN(C)C(=O)C4)CC3)cc1)C(=O)C2 [CGM-097] | 6.3 µM (active) |
| [H]/N=C(\N/C(=N/[H])NCCCCCCNC(=N)NC(=N)Nc1ccc(Cl)cc1)Nc1ccc(Cl)cc1 [CHLORHEXIDINE] | 4.6 µM (active) |
| CN(C)CCCN1c2ccccc2Sc2ccc(Cl)cc21 [CHLORPROMAZINE HYDROCHLORIDE] | 5.4 µM (active) |
| N#CN=C(NCCCCCCOc1ccc(Cl)cc1)Nc1ccncc1 [CHS-828] | 0.1 µM (active) |
| O=C(NOCC1CC1)c1ccc(F)c(F)c1Nc1ccc(I)cc1Cl [CI-1040] | 0.3 µM (active) |
| C[C@@H](NCCCc1cccc(C(F)(F)F)c1)c1cccc2ccccc12 [CINACALCET HYDROCHLORIDE] | 5.1 µM (active) |
| C[C@H]1Cc2c([nH]c3cc(Cl)c(F)cc23)[C@@]2(N1)C(=O)Nc1ccc(Cl)cc12 [CIPARGAMIN] | 10.8 µM (active) |
| COc1cc(N)c(Cl)cc1C(=O)NC1CCN(CCCOc2ccc(F)cc2)CC1OC (configuration not stated) [CISAPRIDE MONOHYDRATE] | 38 µM (inactive) |
| O=C(CCCCCCNC(=O)c1cnc(N(c2ccccc2)c2ccccc2Cl)nc1)NO [CITARINOSTAT] | 3 µM (active) |
| CN1CCC[C@@H]1CCO[C@](C)(c1ccccc1)c1ccc(Cl)cc1 [CLEMASTINE FUMARATE] | 5.4 µM (active) |
| CN(C)CCCN1c2ccccc2CCc2ccc(Cl)cc21 [CLOMIPRAMINE HYDROCHLORIDE] | 6.5 µM (active) |
| COc1ccc(/C=C\c2cc(OC)c(OC)c(OC)c2)cc1O [COMBRETASTATIN A4] | 1.4 µM (inactive) |

| SMILES | CC50 |
| --- | --- |
| CC1(COc2ccc3c(c2)ncn3-c2ccc3cccc(N4CCC(N)CC4)c3n2)COC1 [CRENOLANIB] | 4.4 µM (active) |
| C[C@@H](Oc1cc(-c2cnn(C3CCNCC3)c2)cnc1N)c1c(Cl)ccc(F)c1Cl [CRIZOTINIB] | 2.8 µM (active) |
| C[C@H]1COC2=C1C(=O)C(=O)c1c2ccc2c1CCCC2(C)C [CRYPTOTANSHINONE] | 3.1 µM (active) |
| C#Cc1cccc(Nc2ncnc3cc(OC)c(OCCCCCCC(=O)NO)cc23)c1 [CUDC-101] | 0.5 µM (active) |
| C[C@@H]1C[C@@H]([C@H](O)CC2CC(=O)NC(=O)C2)C(=O)[C@@H](C)C1 [CYCLOHEXIMIDE] | 0.4 µM (active) |
| CCCCCCOC(=O)NC(=N)c1ccc(NCc2nc3cc(C(=O)N(CCC(=O)OCC)c4ccccn4)ccc3n2C)cc1 [DABIGATRAN ETEXILATE MESYLATE] | 10.2 µM (active) |
| CC(C)(C)c1nc(-c2cccc(NS(=O)(=O)c3c(F)cccc3F)c2F)c(-c2ccnc(N)n2)s1 [DABRAFENIB] | 3.1 µM (active) |
| COc1cc2ncnc(Nc3ccc(F)c(Cl)c3)c2cc1NC(=O)/C=C/CN1CCCCC1 [DACOMITINIB ANHYDROUS] | 6.5 µM (active) |
| Cn1c(=O)n(-c2ccc(C(C)(C)C#N)cc2)c2c3cc(-c4cnc5ccccc5c4)ccc3ncc21 [DACTOLISIB TOSYLATE] | 0.1 µM (active) |
| Cc1cc(C)c(Nc2ccnc(Nc3ccc(C#N)cc3)n2)c(C)c1 [DAPIVIRINE] | 6.5 µM (active) |
| CN(C)[C@@H](CCOc1cccc2ccccc12)c1ccccc1 [DAPOXETINE HYDROCHLORIDE] | 6.3 µM (active) |
| CCN(CC)CCN(Cc1ccc(-c2ccc(C(F)(F)F)cc2)cc1)C(=O)Cn1c(SCc2ccc(F)cc2)nc(=O)c2c1CCC2 [DARAPLADIB] | 1.5 µM (active) |
| NC(=O)C(c1ccccc1)(c1ccccc1)[C@@H]1CCN(CCc2ccc3c(c2)CCO3)C1 [DARIFENACIN HYDROBROMIDE] | 11.1 µM (active) |
| COc1cccc2c1C(=O)c1c(O)c3c(c(O)c1C2=O)C[C@@](O)(C(C)=O)C[C@@H]3O[C@H]1C[C@H](N)[C@H](O)[C@H](C)O1 [DAUNORUBICIN HYDROCHLORIDE] | 0.3 µM (active) |
| CNC(=O)c1ccc(Nc2ncc(C(F)(F)F)c(NCc3nccnc3N(C)S(C)(=O)=O)n2)cc1 [DEFACTINIB] | 1.4 µM (inactive) |
| CC(C)C[C@H](NC(=O)[C@@H](NC(=O)c1cccc(-c2ccccc2)n1)[C@@H](C)O)B(O)O [DELANZOMIB] | < 0.1 µM (active) |
| CN1CCC(Nc2nc(Nc3ccc(Oc4ccccc4)cc3)c3c(=O)[nH]cc(Br)c3n2)CC1 [DENFIVONTINIB] | 0.4 µM (active) |
| Cc1cc(N)c2ccccc2[n+]1CCCCCCCCCC[n+]1c(C)cc(N)c2ccccc21 [DEQUALINIUM CHLORIDE] | 14.4 µM (inactive) |
| CNCCCN1c2ccccc2CCc2ccccc21 [DESIPRAMINE HYDROCHLORIDE] | 11.4 µM (active) |
| C[C@H]1O[C@@H](O[C@H]2[C@@H](O)C[C@H](O[C@H]3[C@@H](O)C[C@H](O[C@H]4CC[C@@]5(C)[C@H](CC[C@@H]6[C@@H]5CC[C@]5(C)[C@@H](C7=CC(=O)OC7)CC[C@]65O)C4)O[C@@H]3C)O[C@@H]2C)C[C@H](O)[C@@H]1O [DIGITOXIN] | 0.1 µM (active) |
| C[C@H]1O[C@@H](O[C@H]2[C@@H](O)C[C@H](O[C@H]3[C@@H](O)C[C@H](O[C@H]4CC[C@@]5(C)[C@H](CC[C@@H]6[C@@H]5C[C@@H](O)[C@]5(C)[C@@H](C7=CC(=O)OC7)CC[C@]65O)C4)O[C@@H]3C)O[C@@H]2C)C[C@H](O)[C@@H]1O [DIGOXIN] | 0.2 µM (active) |
